According to patent US20250034110A1, “LPAR1 ANTAGONISTS AND USES THEREOF” (Pipeline Therapeutics, Inc., priority 2021, published 2025):
pIC50: −log10 of the molar value. Read-outs that look alike come from different tables or passages of the source.

Biological target: human LPAR1 (Homo sapiens, UniProt Q92633)
Experiment: In vitro functional assay of lysophosphatidic acid receptor 1 activity (calcium flux)
Assay type: cell-based
[1] = B103 cells stably expressing human LPAR1, calcium flux (Fluo-4 NW) after lysophosphatidic acid (18:1) at EC80, 100 pM to 10 μM, read-out: LPAR1 IC50

human LPAR1, sequence (Q92633 whole entry): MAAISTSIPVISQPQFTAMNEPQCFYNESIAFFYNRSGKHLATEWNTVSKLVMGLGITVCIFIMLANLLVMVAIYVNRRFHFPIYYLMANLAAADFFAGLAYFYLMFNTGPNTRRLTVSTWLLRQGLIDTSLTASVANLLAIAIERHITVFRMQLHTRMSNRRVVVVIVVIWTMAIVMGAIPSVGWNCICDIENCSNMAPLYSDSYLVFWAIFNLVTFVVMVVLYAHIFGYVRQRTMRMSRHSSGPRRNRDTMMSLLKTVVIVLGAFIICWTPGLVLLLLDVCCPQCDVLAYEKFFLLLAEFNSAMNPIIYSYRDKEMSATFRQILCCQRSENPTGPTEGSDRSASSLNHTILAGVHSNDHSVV

Compound | pIC50 (LPAR1 IC50) | pIC50 [1]
COc1ccc(NC(=O)N(c2ccccc2C(C)C)[C@@H]2CCN(C(C)=O)C[C@H]2F)c(OC(F)F)n1 (racemic) [Example 46, rac-1-((3R,4R)-1-acetyl-3-fluoropiperidin-4-yl)-3-(2-(difluoromethoxy)-6-methoxypyridin-3-yl)-1-(2-isopropylphenyl)urea] | 7.00 to 8.00 | 
COc1ccc(NC(=O)N(c2ccccc2C(C)C)[C@H]2CCN(C(C)=O)C[C@H]2F)c(OC(F)F)n1 (racemic) [Example 47, rac-1-((3R,4S)-1-acetyl-3-fluoropiperidin-4-yl)-3-(2-(difluoromethoxy)-6-methoxypyridin-3-yl)-1-(2-isopropylphenyl)urea] | 7.00 to 8.00 | 
COc1ccc(NC(=O)N(c2ccccc2C(C)C)[C@@H]2C[C@@H]3CC[C@H]2N3C(C)=O)c(OC(F)F)n1 (racemic) [Example 59, rac-1-((1R,2R,4S)-7-acetyl-7-azabicyclo[2.2.1]heptan-2-yl)-3-(2-(difluoromethoxy)-6-methoxypyridin-3-yl)-1-(2-isopropylphenyl)urea] |  | 6.00 to 7.00
COc1ccc(NC(=O)N(c2ccccc2C(C)C)[C@H]2C[C@@H]3CC[C@H]2N3C(C)=O)c(OC(F)F)n1 (racemic) [Example 60, rac-1-((1R,2S,4S)-7-acetyl-7-azabicyclo[2.2.1]heptan-2-yl)-3-(2-(difluoromethoxy)-6-methoxypyridin-3-yl)-1-(2-isopropylphenyl)urea] |  | < 6.00
Cc1ccc(NC(=O)N(C[C@@H]2C[C@H]2C(=O)O)c2ccccc2C(C)C)c(OC(F)F)n1 (racemic) [Example 228] |  | 6.00 to 7.00
Cc1ccc(NC(=O)N(c2ccccc2C(C)C)C2CCN(C(=O)OC(C)(C)C)CC2)c(OC(F)F)n1 [Example 1, tert-butyl 4-(3-(2-(difluoromethoxy)-6-methylpyridin-3-yl)-1-(2-isopropylphenyl)ureido)piperidine-1-carboxylate] | 6.00 to 7.00 | 
Cc1ccc(NC(=O)N(c2ccccc2C(C)C)C2CN(C(=O)OC(C)(C)C)C2)c(OC(F)F)n1 [Example 2, tert-butyl 3-(3-(2-(difluoromethoxy)-6-methylpyridin-3-yl)-1-(2-isopropylphenyl)ureido)azetidine-1-carboxylate] |  | 6.00 to 7.00
Cc1ccc(NC(=O)N(c2ccccc2C(C)C)C2(C)COC2)c(OC(F)F)n1 [Example 3, 3-(2-(difluoromethoxy)-6-methylpyridin-3-yl)-1-(2-isopropylphenyl)-1-(3-methyloxetan-3-yl)urea] |  | 6.00 to 7.00
Cc1ccc(NC(=O)N(c2ccccc2C(C)C)C2CCC(=O)N(C)C2)c(OC(F)F)n1 (stereo not shown) [Example 4, 3-(2-(difluoromethoxy)-6-methylpyridin-3-yl)-1-(2-isopropylphenyl)-1-(1-methyl-6-oxopiperidin-3-yl)urea] |  | 7.00 to 8.00
Cc1ccc(NC(=O)N(c2ccccc2C(C)C)[C@@H]2CCC(=O)N(C)C2)c(OC(F)F)n1 [Example 5, (R)-3-(2-(difluoromethoxy)-6-methylpyridin-3-yl)-1-(2-isopropylphenyl)-1-(1-methyl-6-oxopiperidin-3-yl)urea] |  | 7.00 to 8.00
Cc1ccc(NC(=O)N(c2ccccc2C(C)C)[C@H]2CCC(=O)N(C)C2)c(OC(F)F)n1 [Example 6, (S)-3-(2-(difluoromethoxy)-6-methylpyridin-3-yl)-1-(2-isopropylphenyl)-1-(1-methyl-6-oxopiperidin-3-yl)urea] |  | 7.00 to 8.00
Cc1ccc(NC(=O)N(c2ccccc2C(C)C)C2CC(=O)N(C)C2)c(OC(F)F)n1 (stereo not shown) [Example 7, 3-(2-(difluoromethoxy)-6-methylpyridin-3-yl)-1-(2-isopropylphenyl)-1-(1-methyl-5-oxopyrrolidin-3-yl)urea] |  | 6.00 to 7.00
Cc1ccc(NC(=O)N(c2ccccc2C(C)C)[C@H]2CCN(C(=O)OC(C)(C)C)C2)c(OC(F)F)n1 [Example 8, tert-butyl (S)-3-(3-(2-(difluoromethoxy)-6-methylpyridin-3-yl)-1-(2-isopropylphenyl)ureido)pyrrolidine-1-carboxylate] |  | 6.00 to 7.00
Cc1ccc(NC(=O)N(c2ccccc2C(C)C)[C@H]2[C@@H]3CN(C(=O)OC(C)(C)C)C[C@@H]32)c(OC(F)F)n1 [Example 9, tert-butyl (1R,5S,6s)-6-(3-(2-(difluoromethoxy)-6-methylpyridin-3-yl)-1-(2-isopropylphenyl)ureido)-3-azabicyclo[3.1.0]hexane-3-carboxylate] | < 6.00 | 
Cc1ccc(NC(=O)N(C[C@H]2CCN2C(=O)OC(C)(C)C)c2ccccc2C(C)C)c(OC(F)F)n1 [Example 11, tert-butyl (R)-2-((3-(2-(difluoromethoxy)-6-methylpyridin-3-yl)-1-(2-isopropylphenyl)ureido)methyl)azetidine-1-carboxylate] |  | < 6.00
Cc1ccc(NC(=O)N(C[C@@H]2CCN2C(=O)OC(C)(C)C)c2ccccc2C(C)C)c(OC(F)F)n1 [Example 12, tert-butyl (S)-2-((3-(2-(difluoromethoxy)-6-methylpyridin-3-yl)-1-(2-isopropylphenyl)ureido)methyl)azetidine-1-carboxylate] |  | < 6.00
Cc1ccc(NC(=O)N(c2ccccc2C(C)C)C2CC2)c(OC(F)F)n1 [Example 13, 1-cyclopropyl-3-(2-(difluoromethoxy)-6-methylpyridin-3-yl)-1-(2-isopropylphenyl)urea] |  | < 6.00

Compound | pIC50 (LPAR1 IC50) | pIC50 [1]
Cc1ccc(NC(=O)N(c2ccccc2C(C)C)C2COC2)c(OC(F)F)n1 [Example 14, 3-(2-(difluoromethoxy)-6-methylpyridin-3-yl)-1-(2-isopropylphenyl)-1-(oxetan-3-yl)urea] |  | 7.00 to 8.00
Cc1ccc(NC(=O)N(CC2COC2)c2ccccc2C(C)C)c(OC(F)F)n1 [Example 15, 3-(2-(difluoromethoxy)-6-methylpyridin-3-yl)-1-(2-isopropylphenyl)-1-(oxetan-3-ylmethyl)urea] |  | 7.00 to 8.00
Cc1ccc(NC(=O)N(c2ccccc2C(C)C)[C@@H]2CCOC2)c(OC(F)F)n1 [Example 16, (R)-3-(2-(difluoromethoxy)-6-methylpyridin-3-yl)-1-(2-isopropylphenyl)-1-(tetrahydrofuran-3-yl)urea] |  | 7.00 to 8.00
Cc1ccc(NC(=O)N(c2ccccc2C(C)C)[C@H]2CCOC2)c(OC(F)F)n1 [Example 17, (S)-3-(2-(difluoromethoxy)-6-methylpyridin-3-yl)-1-(2-isopropylphenyl)-1-(tetrahydrofuran-3-yl)urea] |  | 7.00 to 8.00
Cc1ccc(NC(=O)N(c2ccccc2C(C)C)C2CCOCC2)c(OC(F)F)n1 [Example 18, 3-(2-(difluoromethoxy)-6-methylpyridin-3-yl)-1-(2-isopropylphenyl)-1-(tetrahydro-2H-pyran-4-yl)urea] |  | 7.00 to 8.00
Cc1ccc(NC(=O)N(CC2CS(=O)(=O)C2)c2ccccc2C(C)C)c(OC(F)F)n1 [Example 19, 3-(2-(difluoromethoxy)-6-methylpyridin-3-yl)-1-((1,1-dioxidothietan-3-yl)methyl)-1-(2-isopropylphenyl)urea] |  | 6.00 to 7.00
Cc1ccc(NC(=O)N(c2ccccc2C(C)C)C2CCS(=O)(=O)CC2)c(OC(F)F)n1 [Example 20, 3-(2-(difluoromethoxy)-6-methylpyridin-3-yl)-1-(1,1-dioxidotetrahydro-2H-thiopyran-4-yl)-1-(2-isopropylphenyl)urea] |  | 7.00 to 8.00
Cc1ccc(NC(=O)N(c2ccccc2C(C)C)C2CC3(C2)CS(=O)(=O)C3)c(OC(F)F)n1 [Example 21, 3-(2-(difluoromethoxy)-6-methylpyridin-3-yl)-1-(2,2-dioxido-2-thiaspiro[3.3]heptan-6-yl)-1-(2-isopropylphenyl)urea] |  | 6.00 to 7.00
Cc1ccc(NC(=O)N(c2ccccc2C(C)C)C2CN(C3COC3)C2)c(OC(F)F)n1 [Example 22, 3-(2-(difluoromethoxy)-6-methylpyridin-3-yl)-1-(2-isopropylphenyl)-1-(1-(oxetan-3-yl)azetidin-3-yl)urea] |  | 6.00 to 7.00
Cc1ccc(NC(=O)N(c2ccccc2C(C)C)[C@H]2C[C@H](OCc3ccccc3)C2)c(OC(F)F)n1 [Example 23, 1-((1r,3r)-3-(benzyloxy)cyclobutyl)-3-(2-(difluoromethoxy)-6-methylpyridin-3-yl)-1-(2-isopropylphenyl)urea] |  | 6.00 to 7.00
Cc1ccc(NC(=O)N(c2ccccc2C(C)C)[C@H]2C[C@@H](OCc3ccccc3)C2)c(OC(F)F)n1 [Example 24, 1-((1s,3s)-3-(benzyloxy)cyclobutyl)-3-(2-(difluoromethoxy)-6-methylpyridin-3-yl)-1-(2-isopropylphenyl)urea] |  | < 6.00
Cc1ccc(NC(=O)N(c2ccccc2C(C)C)[C@H]2C[C@H](C#N)C2)c(OC(F)F)n1 [Example 25, 1-((1r,3r)-3-cyanocyclobutyl)-3-(2-(difluoromethoxy)-6-methylpyridin-3-yl)-1-(2-isopropylphenyl)urea] |  | 6.00 to 7.00
Cc1ccc(NC(=O)N(c2ccccc2C(C)C)[C@H]2C[C@@H](C#N)C2)c(OC(F)F)n1 [Example 26, 1-((1s,3s)-3-cyanocyclobutyl)-3-(2-(difluoromethoxy)-6-methylpyridin-3-yl)-1-(2-isopropylphenyl)urea] |  | 6.00 to 7.00
Cc1ccc(NC(=O)N(c2ccccc2C(C)C)[C@H]2C[C@H](CC#N)C2)c(OC(F)F)n1 [Example 27, 1-((1r,3r)-3-(cyanomethyl)cyclobutyl)-3-(2-(difluoromethoxy)-6-methylpyridin-3-yl)-1-(2-isopropylphenyl)urea] |  | 6.00 to 7.00
Cc1ccc(NC(=O)N(c2ccccc2C(C)C)[C@H]2C[C@@H](CC#N)C2)c(OC(F)F)n1 [Example 28, 1-((1r,3s)-3-(cyanomethyl)cyclobutyl)-3-(2-(difluoromethoxy)-6-methylpyridin-3-yl)-1-(2-isopropylphenyl)urea] |  | 7.00 to 8.00
C=C(C)c1ccccc1N(C(=O)Nc1ccc(C)nc1OC(F)F)C1CCN(C(C)=O)CC1 [Example 29, 1-(1-acetylpiperidin-4-yl)-3-(2-(difluoromethoxy)-6-methylpyridin-3-yl)-1-(2-(prop-1-en-2-yl)phenyl)urea] | 7.00 to 8.00 | 
Cc1ccc(NC(=O)N(c2ccccc2C(C)C)C2CNC(=O)C2)c(OC(F)F)n1 (stereo not shown) [Example 30, 3-(2-(difluoromethoxy)-6-methylpyridin-3-yl)-1-(2-isopropylphenyl)-1-(5-oxopyrrolidin-3-yl)urea] |  | 6.00 to 7.00
